Experimental findings from patent US11957683B2, “Bicyclic compounds” (Aligos Therapeutics, Inc., priority 2021, dated 2024) are described below.

Data set [1] relates to HBV. The experiment in a line: HBV-DNA antiviral assay using HepG2.117 cells. The class given is cell-based, HBV genotype D. The note with it: Hepatitis B virus. As for the experimental part: (§1) The following assay procedure describes the HBV antiviral assay, using HepG2.117 cells, which carry a stably integrated genotype D HBV genome under the control of a Tet-off promoter, and intracellular HBV DNA quantification as endpoint. Cell viability is assessed in parallel by measuring the intracellular ATP content using CellTiter-Glo 2.0 (Promega).
On day 0, HepG2.117 cells (which are maintained in routine cell culture with doxycycline present in the medium at a final concentration of 1 μg/mL) are seeded in 96-well plates (white with clear bottom) at a density of 2.0×10^4 cells/well (0.1 mL/well) in medium without doxycycline to induce pgRNA transcription and subsequent formation of HBV particles. The cells are incubated at 37° C. and 5% CO2.
(§2) On day 1, medium is removed from each well, the test articles are diluted in culture medium without doxcycyline and 100 μL was added to cell culture wells (9 concentrations, 4-fold dilution). For each plate, 6 untreated (merely DMSO) wells are included. The final concentration of DMSO in the culture medium is 2%. Each plate is prepared in duplicate (one for HBV DNA extraction, one for CellTiter-Glo 2.0 measurement). The cells are incubated at 37° C. and 5% CO2 for 3 days.
(§3) On day 4, cell viability is assessed using CellTiter-Glo 2.0 and cell lysates are prepared for HBV DNA extraction and subsequent quantification by qPCR.
Medium is removed from each well and 100 μL of 0.33% NP-40 in H2O was added to each well. Plates are sealed, incubated at 4° C. for 5 mins, vortexed extensively and centrifuged briefly. Next, 35 μL of lysate is added to 65 μL QuickExtract DNA Extraction Solution (Epicentre) in a PCR plate for each well. PCR plate is incubated at 65° C. for 6 mins, 98° C. for 2 mins and finally cooled to 4° C. HBV DNA is then quantified by qPCR with HBV-specific primers and probes as specified in Table 2 using the Bio-Rad SSOAdvanced Universal Probes Supermix on a CFX96 machine (Bio-Rad). The PCR cycle program consisted of 95° C. for 3 mins, followed by 40 cycles at 95° C. for 10 sec and 60° C. for 30 sec.
A DNA standard is prepared by dilution of an IDT gBlock corresponding to the amplicon with concentrations ranging from 10^2 to 10^8 copies/input (i.e., per 4 μL) and used to generate a standard curve by plotting Cq values vs. HBV DNA standard concentration. The quantity of HBV DNA in each sample is determined by interpolating from the standard curve.
(§4) Cell viability is calculated as follows: % Cell viability=(luminescence value of test sample)/(average luminescence value of 2% DMSO control)×100%. HBV DNA inhibition was calculated as follows: 100−(HBV DNA copy number of test sample)/(average HBV DNA copy number of 2% DMSO control)×100%. No normalization to entecavir is required due to the excellent dynamic window of this assay. The CC50, EC50 and EC90 values were determined by dose-response curves fitted using non-linear regression.

Data set [2] in a line: Cell viability by CellTiter-Glo 2.0 (intracellular ATP) in HepG2.117 cells. Type of data set: cell-based. As to conditions: human, CellTiter-Glo 2.0, HepG2.117 cells, 3 days incubation. The procedure: as §1, §2, §3
Using the other plates, the cell viability is quantified by CellTiter-Glo 2.0 according to the manufacturer's manual. In brief, 100 μL of reagent solution is added to the culture plates and shaken for 2′. The plates are incubated at rt for 10 min and luminescence signal is subsequently measured on a VarioSkan Lux (ThermoFisher) plate reader.
as §4
Background: In ATP-based viability assays light output follows the ATP content of the culture.

Setting [3] is: 72 h, HBV DNA inhibition, intracellular HBV DNA by qPCR, HepG2.117 cells, 3 days incubation, read-out: EC50.

Molecules are shown by their SMILES. Where two headings read alike, the source gives them in different places.

Consider `C=C[C@H](C)Nc1nc2c(c(=O)n1-c1ccc(C(=O)NC)cc1Cl)C[C@@H](C)N(C(=O)c1ccc(Br)c(C(F)(F)F)c1)C2` (atropisomer, axis not shown) [Compound 44, 4-[(6R)-7-[4-bromo-3-(trifluoromethyl)benzoyl]-6-methyl-2-[[(1S)-1-methylallyl]amino]-4-oxo-6,8-dihydro-5H-pyrido[3,4-d]pyrimidin-3-yl]-3-chloro-N-methyl-benzamide], for which, in data set [1] (setting [3]), the EC50 is below 0.05 µM. Further, in data set [2], the CC50 at 3 days is above 50 µM.

As for `C=CC(C)Nc1nc2c(c(=O)n1-c1ccc(C(=O)NC)cc1)C[C@@H](C)N(C(=O)c1ccc(Br)c(C(F)(F)F)c1)C2` (single isomer, unassigned) [Compound 2a], in data set [1] (setting [3]), the EC50 is below 0.05 µM. This molecule came in with a CC50 at 3 days in data set [2] above 0.5 µM.

Consider `C=CC(C)Nc1nc2c(c(=O)n1-c1ccc(-c3[nH]nnc3C)cc1)C[C@@H](C)N(C(=O)c1ccc(Br)c(C(F)(F)F)c1)C2` (single isomer, unassigned) [Compound 3a], for which the EC50 in data set [1] (setting [3]) was below 0.05 µM. Also, in data set [2], the CC50 at 3 days was above 0.5 µM.

Regarding `C=C[C@H](C)Nc1nc2c(c(=O)n1-c1ccc(OCC(C)O)cc1)C[C@@H](C)N(C(=O)c1ccc(Br)c(C(F)(F)F)c1)C2` (stereo in doubt) [Compound 31, (R)-7-(4-bromo-3-(trifluoromethyl)benzoyl)-2-(((S)-but-3-en-2-yl)amino)-3-(4-((S)-2-hydroxypropoxy)phenyl)-6-methyl-5,6,7,8-tetrahydropyrido[3,4-d]pyrimidin-4(3H)-one], the EC50 in data set [1] (setting [3]) is below 0.05 µM. Moreover, the midpoint of cytotoxicity in data set [2], the CC50 at 3 days, lay at 29.6 µM.

Take `C=CC(C)(C)Nc1nc2c(c(=O)n1-c1ccc(C(=O)NC)cc1)C[C@@H](C)N(C(=O)c1ccc(Br)c(C(F)(F)F)c1)C2` [Compound 1, (R)-4-(7-(4-bromo-3-(trifluoromethyl)benzoyl)-6-methyl-2-((2-methylbut-3-en-2-yl)amino)-4-oxo-5,6,7,8-tetrahydropyrido[3,4-d]pyrimidin-3(4H)-yl)-N-methylbenzamide]: the EC50 in data set [1] (setting [3]) is below 0.05 µM. The CC50 at 3 days in data set [2] is above 0.5 µM.

`C=C[C@H](C)Nc1nc2c(c(=O)n1-c1ccc(-c3nnc(C)[nH]3)cc1)C[C@@H](C)N(C(=O)c1ccc(Br)c(C(F)(F)F)c1)C2` [Compound 4a, (R)-7-(4-bromo-3-(trifluoromethyl)benzoyl)-2-(((S)-but-3-en-2-yl)amino)-6-methyl-3-(4-(5-methyl-4H-1,2,4-triazol-3-yl)phenyl)-5,6,7,8-tetrahydropyrido[3,4-d]pyrimidin-4(3H)-one]: the EC50 in data set [1] (HepG2.117, 72 h) was below 0.05 µM. Besides, the CC50 at 3 days in data set [2] is above 0.5 µM.

Turning to `C=CCNc1nc2c(c(=O)n1-c1ccc(C(=O)NC)cc1)C[C@@H](C)N(C(=O)c1ccc(Br)c(C(F)(F)F)c1)C2` [Compound 5], the EC50 in data set [1] (setting [3]) was below 0.05 µM. Further, in data set [2], the CC50 at 3 days is above 50 µM.

On to `C=CCN(C)c1nc2c(c(=O)n1-c1ccc(C(=O)NC)cc1)C[C@@H](C)N(C(=O)c1ccc(Br)c(C(F)(F)F)c1)C2` [Compound 6], for which the EC50 in data set [1] (setting [3]) was below 0.05 µM. In addition, the CC50 at 3 days in data set [2] is above 0.5 µM.

For the molecule `CNC(=O)c1ccc(-n2c(NCC=C(C)C)nc3c(c2=O)C[C@@H](C)N(C(=O)c2ccc(Br)c(C(F)(F)F)c2)C3)cc1` [Compound 7], in data set [1] (setting [3]), the EC50 is below 0.05 µM. Besides, it took 7.35 µM to reach half-maximal cytotoxicity in data set [2] (CC50 at 3 days).

Regarding `C=CC1(Nc2nc3c(c(=O)n2-c2ccc(C(=O)NC)cc2)C[C@@H](C)N(C(=O)c2ccc(Br)c(C(F)(F)F)c2)C3)CCC1` [Compound 8], the EC50 in data set [1] (setting [3]) was below 0.05 µM. This molecule showed a CC50 at 3 days in data set [2] of 7.33 µM.

Take `C=C[C@H](C)Nc1nc2c(c(=O)n1-c1cc(C(=O)NC)n(C)n1)C[C@@H](C)N(C(=O)c1ccc(Br)c(C(F)(F)F)c1)C2` [Compound 9, 3-((R)-7-(4-bromo-3-(trifluoromethyl)benzoyl)-2-(((S)-but-3-en-2-yl)amino)-6-methyl-4-oxo-5,6,7,8-tetrahydropyrido[3,4-d]pyrimidin-3(4H)-yl)-N,1-dimethyl-1H-pyrazole-5-carboxamide]: the EC50 in data set [1] (setting [3]) was below 0.05 µM. In data set [2], this molecule showed a CC50 at 3 days above 50 µM.

Turning to `C=CC(C)N(C)c1nc2c(c(=O)n1-c1ccc(C(=O)NC)cc1)C[C@@H](C)N(C(=O)c1ccc(Br)c(C(F)(F)F)c1)C2` (stereo partly drawn) [Compound 10a], the concentration for a half-maximal effect (EC50) in data set [1] (setting [3]) was below 0.05 µM. This molecule also yielded a CC50 at 3 days in data set [2] above 50 µM.

As for `C=CC(Nc1nc2c(c(=O)n1-c1ccc(C(=O)NC)cc1)C[C@@H](C)N(C(=O)c1ccc(Br)c(C(F)(F)F)c1)C2)C1CC1` (stereo partly drawn) [Compound 11a], the EC50 in data set [1] (setting [3]) is below 0.05 µM. In data set [2], this molecule came in with a CC50 at 3 days above 50 µM.

As for `C=C[C@H](C)Nc1nc2c(c(=O)n1-c1ccc(OC3CC3)cc1)C[C@@H](C)N(C(=O)c1ccc(Br)c(C(F)(F)F)c1)C2` [Compound 12, (R)-7-(4-bromo-3-(trifluoromethyl)benzoyl)-2-((S)-but-3-en-2-ylamino)-3-(4-cyclopropoxyphenyl)-6-methyl-5,6,7,8-tetrahydropyrido[3,4-d]pyrimidin-4(3H)-one], in data set [1] (setting [3]), the EC50 was below 0.05 µM. Further, the CC50 at 3 days in data set [2] was above 50 µM.

For `C=C[C@H](C)Nc1nc2c(c(=O)n1-c1ccc3c(c1)nnn3C)C[C@@H](C)N(C(=O)c1ccc(Br)c(C(F)(F)F)c1)C2` [Compound 13, (R)-7-(4-bromo-3-(trifluoromethyl)benzoyl)-2-(((S)-but-3-en-2-yl)amino)-6-methyl-3-(1-methyl-1H-benzo[d][1,2,3]triazol-5-yl)-5,6,7,8-tetrahydropyrido[3,4-d]pyrimidin-4(3H)-one], in data set [1] (setting [3]), the EC50 was below 0.05 µM. In data set [2], the CC50 at 3 days stood at 48 µM.

Consider `CNC(=O)c1ccc(-n2c(C#CC(C)(C)N)nc3c(c2=O)C[C@@H](C)N(C(=O)c2ccc(Br)c(C(F)(F)F)c2)C3)cc1` [Compound 14, (R)-4-(2-(3-amino-3-methylbut-1-yn-1-yl)-7-(4-bromo-3-(trifluoromethyl)benzoyl)-6-methyl-4-oxo-5,6,7,8-tetrahydropyrido[3,4-d]pyrimidin-3(4H)-yl)-N-methylbenzamide], for which the EC50 in data set [1] (setting [3]) lay within 0.05 to 0.5 µM. Further, in data set [2], the CC50 at 3 days was above 0.5 µM.

As for `C=CC(Nc1nc2c(c(=O)n1-c1ccc(C(=O)NC)cc1)C[C@@H](C)N(C(=O)c1ccc(Br)c(C(F)(F)F)c1)C2)C1CCC1` (stereo partly drawn) [Compound 15], in data set [1] (setting [3]), the EC50 was below 0.05 µM. Moreover, the CC50 at 3 days in data set [2] is above 0.5 µM.

Consider `C=CC(COC)Nc1nc2c(c(=O)n1-c1ccc(C(=O)NC)cc1)C[C@@H](C)N(C(=O)c1ccc(Br)c(C(F)(F)F)c1)C2` (stereo partly drawn) [Compound 16], for which, in data set [1] (setting [3]), the EC50 was below 0.05 µM. Further, in data set [2], the CC50 at 3 days was above 0.5 µM.

Consider `C=C[C@H](C)Nc1nc2c(c(=O)n1-c1ccc3c(c1)ncn3C)C[C@@H](C)N(C(=O)c1ccc(Br)c(C(F)(F)F)c1)C2` [Compound 17, (R)-7-(4-bromo-3-(trifluoromethyl)benzoyl)-2-(((S)-but-3-en-2-yl)amino)-6-methyl-3-(1-methyl-1H-benzo[d]imidazol-5-yl)-5,6,7,8-tetrahydropyrido[3,4-d]pyrimidin-4(3H)-one], for which, in data set [1] (setting [3]), the EC50 was below 0.05 µM. This molecule also had a CC50 at 3 days in data set [2] above 0.5 µM.

Regarding `C=C[C@@H](C)Nc1nc2c(c(=O)n1-c1ccc3c(c1)ncn3C)C[C@@H](C)N(C(=O)c1ccc(Br)c(C(F)(F)F)c1)C2` [Compound 18, (R)-7-(4-bromo-3-(trifluoromethyl)benzoyl)-2-(((R)-but-3-en-2-yl)amino)-6-methyl-3-(1-methyl-1H-benzo[d]imidazol-5-yl)-5,6,7,8-tetrahydropyrido[3,4-d]pyrimidin-4(3H)-one], the EC50 in data set [1] (setting [3]) was below 0.05 µM. The molecule further showed a CC50 at 3 days in data set [2] above 0.5 µM.

In the case of `C=C[C@@H](C)Nc1nc2c(c(=O)n1-c1ccc(C(=O)NC)c(Cl)c1)C[C@@H](C)N(C(=O)c1ccc(Br)c(C(F)(F)F)c1)C2` [Compound 19, 4-((R)-7-(4-bromo-3-(trifluoromethyl)benzoyl)-2-(((R)-but-3-en-2-yl)amino)-6-methyl-4-oxo-5,6,7,8-tetrahydropyrido[3,4-d]pyrimidin-3(4H)-yl)-2-chloro-N-methylbenzamide], the EC50 in data set [1] (setting [3]) is below 0.05 µM. Besides, the CC50 at 3 days in data set [2] is above 0.5 µM.

Usually EC50 stands for the concentration needed to bring the measured effect to its halfway point. One may read the CC50 as the concentration at which the toxic effect on the cells reaches its halfway point. A low value points to greater toxicity to the cells.
